From US4804684A, “Symmetrical O-substituted dioximes of benzo-fused β-diketocyclo-alkylenes, the processes for their preparation and their application as drugs” (Panmedica S.A., priority 1986, dated 1989)

Legend:
[1] = test system: platelet aggregation; assay: In vitro inhibition of platelet aggregation (BORN's method), induced by collagen or ADP; assay type: cell-based, animal and human; conditions: 100 μg/ml, aspirin as reference
Description: In vitro inhibition of platelet aggregation The inhibition of platelet aggregation is measured in vitro by BORN's method (Nature 4832, 927 (1962)), the aggregation being induced by collagen or ADP. […] The aggregation can also be induced in vitro by serotonin, arachidonic acid and norepinephrine. Furthermore, this inhibitory effect was observed on platelet-rich plasma (PRP) of animal origin and human origin.

[2] = test system: platelet-rich human plasma; platelet aggregation induced by ADP; assay: Platelet aggregation (platelet-rich human plasma) induced in vitro by ADP; assay type: cell-based; conditions: platelet-rich human plasma, 300,000 platelets/cm^2, 2.0 μg/ml of ADP; read-out: IC50, inductor: ADP
Description: (§1) Study of the Effects on the Platelet Aggregation (Platelet-Rich Human Plasma) Induced in Vitro By: ADP, Collagen or Arachidonic Acid Blood samples from volunteer donors are treated and adjusted to a platelet concentration of 300,000/cm^2 and then incubated with different concentrations of the test products. Aggregation is induced by 2.0 μg/ml of ADP or by 10.0 μg/ml of collagen. The measurements are made using a Bryston-type aggregometer--or CHRONOLOG. The changes in optical density are noted and the values of the concentrations which cause a 50% inhibition are calculated.

[3] = test system: platelet-rich human plasma; platelet aggregation induced by collagen; assay: Platelet aggregation (platelet-rich human plasma) induced in vitro by collagen; assay type: cell-based; conditions: platelet-rich human plasma, 300,000 platelets/cm^2, 10.0 μg/ml of collagen; read-out: IC50, inductor: collagen
Description: as §1

[4] = test system: isolated guinea-pig intestine; assay: Antagonistic effects on isolated guinea-pig intestine (MAGNUS); conditions: 0.1 μg/ml

CCN(CC)CCON=C1CC(=NOCCN(CC)CC)c2ccccc2-c2ccccc21.Cl.Cl [Example 15, 5,7-Bis(2-Diethylaminoethoxyimino)-6,7-Dihydro-(5H)-Dibenzo[a,c]Cycloheptene Dihydrochloride]
inhibition of platelet aggregation compared with aspirin [1]: comparable or even superior to aspirin | IC50 [2]: 10 µg/mL | IC50 [3]: 24 µg/mL | inhibitory effect on isolated guinea-pig intestine [4]: still substantial

CCN(CC)CCON=C1CC(=NOCCN(CC)CC)c2ccccc2-c2ccccc21.O=C(O)/C=C\C(=O)O.O=C(O)/C=C\C(=O)O [Example 16, 5,7-Bis(2-Diethylaminoethoxyimino)-6,7-Dihydro-(5H)-Dibenzo[a,c]Cycloheptene Dimaleate]
inhibition of platelet aggregation compared with aspirin [1]: comparable or even superior to aspirin | IC50 [2]: 16 µg/mL | IC50 [3]: 22 µg/mL | inhibitory effect on isolated guinea-pig intestine [4]: still substantial

CCN(CC)CCON=C1CC(=NOCCN(CC)CC)c2ccccc2-c2ccccc21.O=C(O)C(O)C(O)C(=O)O.O=C(O)C(O)C(O)C(=O)O [Example 17, 5,7-Bis(2-Diethylaminoethoxyimino)-6,7-Dihydro-(5H)-Dibenzo[a,c]Cycloheptene Ditartrate]
inhibition of platelet aggregation compared with aspirin [1]: comparable or even superior to aspirin | IC50 [2]: 10 µg/mL | IC50 [3]: 16 µg/mL | inhibitory effect on isolated guinea-pig intestine [4]: still substantial

Cl.Cl.NCCON=C1CC(=NOCCN)c2ccccc2-c2ccccc21 [Example 18, 5,7-Bis(2-Aminoethoxyimino)-6,7-Dihydro-(5H)-Dibenzo[a,c]Cycloheptene Dihydrochloride]
inhibition of platelet aggregation compared with aspirin [1]: comparable or even superior to aspirin | IC50 [2]: 40 µg/mL | IC50 [3]: 50 µg/mL | inhibitory effect on isolated guinea-pig intestine [4]: still substantial

Cl.Cl.NCCCON=C1CC(=NOCCCN)c2ccccc2-c2ccccc21 [Example 19, 5,7-Bis(3-Aminopropoxyimino)-6,7-Dihydro-(5H)-Dibenzo[a,c]Cycloheptene Dihydrochloride]
inhibition of platelet aggregation compared with aspirin [1]: comparable or even superior to aspirin | IC50 [2]: 100 µg/mL | IC50 [3]: 175 µg/mL | inhibitory effect on isolated guinea-pig intestine [4]: still substantial
